These results are taken from patent publication US9409908B2 (priority 2012, dated 2016).

Test [1] deals with purified human Factor XIa (Homo sapiens (Human), UniProt P03951). Put plainly: biochemical. The test is classed as biochemical. The conditions noted are these: read-out: Factor XIa Ki.
In test [2] the target is purified human plasma kallikrein (Homo sapiens (Human), UniProt P03952). The test is described as follows: biochemical. In kind it is biochemical.

Counter-ions that a name gives are not always drawn. Like-named read-outs stand apart in the source and are kept apart here.

Chain of purified human plasma kallikrein (P03952 whole entry, looked up): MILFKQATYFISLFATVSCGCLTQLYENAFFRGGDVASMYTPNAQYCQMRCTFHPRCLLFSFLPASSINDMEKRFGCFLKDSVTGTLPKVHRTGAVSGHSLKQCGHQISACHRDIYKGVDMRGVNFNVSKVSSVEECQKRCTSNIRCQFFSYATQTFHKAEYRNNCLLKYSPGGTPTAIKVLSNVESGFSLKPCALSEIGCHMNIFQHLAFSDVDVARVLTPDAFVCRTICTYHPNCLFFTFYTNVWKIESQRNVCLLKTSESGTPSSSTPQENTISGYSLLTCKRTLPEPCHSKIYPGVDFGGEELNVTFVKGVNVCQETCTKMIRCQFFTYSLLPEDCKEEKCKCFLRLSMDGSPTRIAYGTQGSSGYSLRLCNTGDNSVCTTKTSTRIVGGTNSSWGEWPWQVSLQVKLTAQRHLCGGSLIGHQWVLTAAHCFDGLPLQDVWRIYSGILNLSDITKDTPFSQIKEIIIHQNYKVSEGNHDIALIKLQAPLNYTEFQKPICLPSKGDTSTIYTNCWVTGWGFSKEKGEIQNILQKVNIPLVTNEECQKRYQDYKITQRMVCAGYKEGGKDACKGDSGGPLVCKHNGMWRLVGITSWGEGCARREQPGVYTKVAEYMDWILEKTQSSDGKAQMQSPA
Chain of purified human plasma kallikrein (P03952 whole entry partner, looked up): as the sequence (P03952 whole entry, looked up) above
Chain of purified human Factor XIa (P03951 whole entry, looked up): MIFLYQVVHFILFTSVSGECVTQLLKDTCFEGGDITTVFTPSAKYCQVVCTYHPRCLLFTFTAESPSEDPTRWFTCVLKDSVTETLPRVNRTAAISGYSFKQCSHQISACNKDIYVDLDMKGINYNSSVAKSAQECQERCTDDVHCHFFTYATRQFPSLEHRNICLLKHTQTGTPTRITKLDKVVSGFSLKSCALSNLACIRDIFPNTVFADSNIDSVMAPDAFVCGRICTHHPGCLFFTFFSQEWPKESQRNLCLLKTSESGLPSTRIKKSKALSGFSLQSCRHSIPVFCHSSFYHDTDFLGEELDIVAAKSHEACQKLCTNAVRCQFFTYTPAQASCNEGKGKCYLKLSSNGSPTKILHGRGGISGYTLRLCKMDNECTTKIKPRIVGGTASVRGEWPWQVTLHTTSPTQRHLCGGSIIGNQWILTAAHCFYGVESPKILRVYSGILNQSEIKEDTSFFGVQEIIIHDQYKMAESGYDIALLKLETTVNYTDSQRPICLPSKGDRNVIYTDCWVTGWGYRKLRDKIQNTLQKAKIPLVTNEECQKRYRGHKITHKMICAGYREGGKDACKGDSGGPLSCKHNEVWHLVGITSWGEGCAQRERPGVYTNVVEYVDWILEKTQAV
Chain of purified human Factor XIa (P03951 whole entry partner, looked up): as the sequence (P03951 whole entry, looked up) above

On to `COC(=O)Nc1ccc2c(c1)NC(=O)[C@H](C)CCC[C@H](N1CCC(c3c(C(C)=O)ccc(Cl)c3F)=CC1=O)c1cccc-2c1` [Example 171, Methyl N-[(10R,14S)-14-[4-(6-acetyl-3-chloro-2-fluorophenyl)-6-oxo-1,2,3,6-tetrahydropyridin-1-yl]-10-methyl-9-oxo-8-azatricyclo[13.3.1.0^2,7]nonadeca-1(18),2,4,6,15(19),16-hexaen-5-yl]carbamate], for which the inhibitory constant (Ki) in test [1] worked out at 0.17 nM; in test [2] (read-out: Plasma Kallikrein Ki), 8.87 nM.

Regarding `C[C@@H]1CCC[C@H](N2CCC(c3c(F)ccc(Cl)c3F)=CC2=O)c2cc(ccn2)-c2ccc(Nc3ccncn3)cc2NC1=O` [Example 90, (10R,14S)-14-[4-(3-Chloro-2,6-difluorophenyl)-6-oxo-1,2,3,6-tetrahydropyridin-1-yl]-10-methyl-5-[(pyrimidin-4-yl)amino]-8,16-diazatricyclo[13.3.1.0^2,7]nonadeca-1(19),2(7),3,5,15,17-hexaen-9-one, 2 TFA salt], the Ki in test [1] came out at 1.81 nM; in test [2] (read-out: Plasma Kallikrein Ki), 4 nM.

For the compound `CC1CCC[C@H](N2CCC(c3c(F)ccc(Cl)c3F)=CC2=O)c2cc(ccn2)-c2ccc(C#N)cc2NC1=O` (stereo partly drawn) [Example 109, (14S)-14-[4-(3-Chloro-2,6-difluorophenyl)-6-oxo-1,2,3,6-tetrahydropyridin-1-yl]-10-methyl-9-oxo-8,16-diazatricyclo[13.3.1.0^2,7]nonadeca-1(18),2,4,6,15(19),16-hexaene-5-carbonitrile, TFA salt], in test [2] (read-out: Plasma Kallikrein Ki), the Ki stood at 40 nM.

Regarding `COC(=O)Nc1ccc2c(c1)NC(=O)[C@H](C)CCC[C@H](N1CC(C)C(c3c(F)ccc(Cl)c3F)=CC1=O)c1cc-2ccn1` (stereo partly drawn) [Example 73, Methyl N-[(10R,14S)-14-[4-(3-chloro-2,6-difluorophenyl)-3-methyl-6-oxo-1,2,3,6-tetrahydropyridin-1-yl]-10-methyl-9-oxo-8,16-diazatricyclo[13.3.1.0^2,7]nonadeca-1(19),2(7),3,5,15,17-hexaen-5-yl]carbamate, TFA salt], the Ki in test [1] is 0.88 nM; in test [2] (read-out: Plasma Kallikrein Ki), 6 nM.

For `C[C@@H]1CCC[C@H](N2CCC(c3c(F)ccc(Cl)c3F)=CC2=O)c2cccc(c2)-c2ccccc2NC1=O` [Example 162, (10R,14S)-14-[4-(3-chloro-2,6-difluorophenyl)-6-oxo-1,2,3,6-tetrahydropyridin-1-yl]-10-methyl-8-azatricyclo[13.3.1.0^2,7]nonadeca-1(19),2,4,6,15,17-hexaen-9-one], the figures for the Ki in test [1] and in test [2] (read-out: Plasma Kallikrein Ki) were 76.5 nM and 125 nM, respectively.

In the case of `COC(=O)Nc1ccc2c(c1)NC(=O)[C@H](C)CCC[C@H](N1CCC(c3cc(Cl)ccc3C(F)(F)F)=CC1=O)c1cc-2ccn1` [Example 36, Methyl N-[(10R,14S)-14-{4-[5-chloro-2-(trifluoromethyl)phenyl]-6-oxo-1,2,3,6-tetrahydropyridin-1-yl}-10-methyl-9-oxo-8,16-diazatricyclo[13.3.1.0^2,7]nonadeca-1(19),2,4,6,15,17-hexaen-5-yl]carbamate, TFA salt], the values for the Ki in test [1] and in test [2] (read-out: Plasma Kallikrein Ki) were 0.09 nM and 8 nM, respectively.

On to `CC1CCC[C@H](N2CCC(c3c(C(F)(F)F)ccc(Cl)c3F)=CC2=O)c2cc(ccn2)-c2ccc(C(N)=O)cc2NC1=O` (stereo partly drawn) [Example 108, (14S)-14-{4-[3-Chloro-2-fluoro-6-(trifluoromethyl)phenyl]-6-oxo-1,2,3,6-tetrahydropyridin-1-yl}-10-methyl-9-oxo-8,16-diazatricyclo[13.3.1.0^2,7]nonadeca-1(18),2,4,6,15(19),16-hexaene-5-carboxamide, TFA salt], for which the Ki in test [1] was 8.13 nM; in test [2] (read-out: Plasma Kallikrein Ki), 29 nM.

Turning to `C[C@@H]1CCC[C@H](N2CCC(c3c(F)ccc(Cl)c3F)=CC2=O)c2cc(ccn2)-c2cc3ccc(=O)[nH]c3cc2NC1=O` [Example 81, (14R,18S)-18-[4-(3-Chloro-2,6-difluorophenyl)-6-oxo-1,2,3,6-tetrahydropyridin-1-yl]-14-methyl-8,12,20-triazatetracyclo[17.3.1.0^2,11.0^4,9]tricosa-1(23),2,4(9),5,10,19,21-heptaene-7,13-dione, TFA salt], the Ki is 0.31 nM in test [1] and 1 nM in test [2] (read-out: Plasma Kallikrein Ki).

Consider `COC(=O)Nc1ccc2c(c1)NC(=O)[C@H](C)CCC[C@H](N1CCC(C3CCCC(C)C3)=CC1=O)c1cc-2ccn1` (single isomer, unassigned) [Example 226, TFA salt], for which the Ki in test [1] (TFA salt) was 24.6 nM; in test [2] (TFA salt, read-out: Plasma Kallikrein Ki), 165 nM.

As to `COC(=O)Nc1ccc2c(c1)NC(=O)[C@H](C)CCC[C@H](N1CCC(c3c(OC(F)F)ccc(Cl)c3F)=CC1=O)c1cc-2ccn1` [Example 32, Methyl N-[(10R,14S)-14-{4-[3-chloro-6-(difluoromethoxy)-2-fluorophenyl]-6-oxo-1,2,3,6-tetrahydropyridin-1-yl}-10-methyl-9-oxo-8,16-diazatricyclo[13.3.1.0^2,7]nonadeca-1(19),2,4,6,15,17-hexaen-5-yl]carbamate, TFA salt], the Ki in test [1] was 0.06 nM; in test [2] (read-out: Plasma Kallikrein Ki) it was 6 nM.

Turning to `C[C@@H]1CCC[C@H](N2CCC(c3c(F)ccc(Cl)c3F)=CC2=O)c2cc(ccn2)-c2ccc(NC3O[C@H](CO)[C@@H](O)[C@H](O)[C@@H]3O)cc2NC1=O` (stereo partly drawn) [Example 125, (10R,14S)-14-[4-(3-chloro-2,6-difluorophenyl)-6-oxo-1,2,3,6-tetrahydropyridin-1-yl]-10-methyl-5-{[(3S,4S,5S,6R)-3,4,5-trihydroxy-6-(hydroxymethyl)oxan-2-yl]amino}-8,16-diazatricyclo[13.3.1.0^2,7]nonadeca-1(19),2,4,6,15,17-hexaen-9-one], the Ki in test [1] is 15.2 nM; in test [2] (read-out: Plasma Kallikrein Ki), 11.6 nM.

With `COC(=O)Nc1cc2c(cc1I)-c1ccnc(c1)[C@@H](N1CCC(c3c(F)ccc(Cl)c3F)=CC1=O)CCC[C@@H](C)C(=O)N2` [Example 62, Methyl N-[(10R,14S)-14-[4-(3-chloro-2,6-difluorophenyl)-6-oxo-1,2,3,6-tetrahydropyridin-1-yl]-4-iodo-10-methyl-9-oxo-8,16-diazatricyclo[13.3.1.0^2,7]nonadeca-1(19),2,4,6,15,17-hexaen-5-yl]carbamate, TFA salt], the Ki came out at 196 nM in test [1] and 1100 nM in test [2] (read-out: Plasma Kallikrein Ki).

`C[C@@H]1CCC[C@H](N2CCC(c3c(F)ccc(Cl)c3F)=CC2=O)c2cc(ccn2)-c2ccc(NC3O[C@H](CO)[C@@H](O)[C@H](O)[C@H]3O)cc2NC1=O` (stereo partly drawn) [Example 126, (10R,14S)-14-[4-(3-chloro-2,6-difluorophenyl)-6-oxo-1,2,3,6-tetrahydropyridin-1-yl]-10-methyl-5-{[(3R,4S,5S,6R)-3,4,5-trihydroxy-6-(hydroxymethyl)oxan-2-yl]amino}-8,16-diazatricyclo[13.3.1.0^2,7]nonadeca-1(19),2,4,6,15,17-hexaen-9-one]: the Ki in test [1] is 16.1 nM; in test [2] (read-out: Plasma Kallikrein Ki), 37.6 nM.

Take `COC(=O)Nc1ccc2c(c1)NC(=O)[C@H](C)CCC[C@H](N1CCC(c3c(F)ccc(Cl)c3F)=C(C)C1=O)c1cc-2ccn1` [Example 64, Methyl N-[(10R,14S)-14-[4-(3-chloro-2,6-difluorophenyl)-5-methyl-6-oxo-1,2,3,6-tetrahydropyridin-1-yl]-10-methyl-9-oxo-8,16-diazatricyclo[13.3.1.0^2,7]nonadeca-1(19),2,4,6,15,17-hexaen-5-yl]carbamate, TFA salt]: the Ki in test [1] came out at 16.6 nM; in test [2] (read-out: Plasma Kallikrein Ki), 171 nM.

With `COC(=O)Nc1ccc2c(c1)NC(=O)[C@H](C)CCC[C@H](N1CCC(C3CCCCC3)=CC1=O)c1cc-2ccn1` [Example 98, Methyl N-[(10R,14S)-14-(4-cyclohexyl-6-oxo-1,2,3,6-tetrahydropyridin-1-yl)-10-methyl-9-oxo-8,16-diazatricyclo[13.3.1.0^2,7]nonadeca-1(19),2,4,6,15,17-hexaen-5-yl]carbamate, TFA salt], the Ki in test [1] was determined as 30.1 nM; in test [2] (read-out: Plasma Kallikrein Ki), 36 nM.

For the compound `COC(=O)Nc1ccc2c(c1)NC(=O)[C@H](C)CCC[C@H](N1CCC(c3cccc(Cl)c3F)=CC1=O)c1nc-2c(C)[nH]1` [Example 151, Methyl N-[(10R,14S)-14-[4-(3-chloro-2-fluorophenyl)-6-oxo-1,2,3,6-tetrahydropyridin-1-yl]-10,17-dimethyl-9-oxo-8,16,18-triazatricyclo[13.2.1.0^2,7]octadeca-1(17),2,4,6,15(18)-pentaen-5-yl]carbamate], the Ki in test [2] (read-out: Plasma Kallikrein Ki) was 23.8 nM.

On to `C[C@@H]1CCC[C@H](N2CCC(c3c(F)ccc(Cl)c3F)=CC2=O)c2cc(ccn2)-c2cc(Cl)c(O)c(Cl)c2NC1=O` [Example 20, (10R,14S)-4,6-Dichloro-14-[4-(3-chloro-2,6-difluorophenyl)-6-oxo-1,2,3,6-tetrahydropyridin-1-yl]-5-hydroxy-10-methyl-8,16-diazatricyclo[13.3.1.0^2,7]nonadeca-1(19),2,4,6,15,17-hexaen-9-one, TFA salt], for which, in test [2] (read-out: Plasma Kallikrein Ki), the Ki came out at 973 nM.

As for `C[C@@H]1CCC[C@H](N2CCC(c3c(F)ccc(Cl)c3F)=CC2=O)c2cc(ccn2)-c2ccc(NC3O[C@H](CO)[C@@H](O)[C@@H](O)[C@H]3NC(=O)OC(C)(C)C)cc2NC1=O` (stereo partly drawn) [Example 132, tert-butyl N-[(3R,4S,5S,6R)-2-{[(10R,14S)-14-[4-(3-chloro-2,6-difluorophenyl)-6-oxo-1,2,3,6-tetrahydropyridin-1-yl]-10-methyl-9-oxo-8,16-diazatricyclo[13.3.1.0^2,7]nonadeca-1(19),2,4,6,15,17-hexaen-5-yl]amino}-4,5-dihydroxy-6-(hydroxymethyl)oxan-3-yl]carbamate], the Ki in test [2] (read-out: Plasma Kallikrein Ki) was 17.3 nM.

On to `COC(=O)Nc1ccc2c(c1)NC(=O)[C@H](C)CCC[C@H](N1CC(C)C(c3c(F)ccc(Cl)c3F)=CC1=O)c1cc-2ccn1` (single isomer, unassigned; isomer 2) [Example 178], for which affinity in test [2] (Plasma Kallikrein Ki) was put at a Ki of 5.68 nM.

Regarding `CCOC(=O)Cc1nnc(Nc2ccc3c(c2)NC(=O)[C@H](C)CCC[C@H](N2CCC(c4c(F)ccc(Cl)c4F)=CC2=O)c2cc-3ccn2)o1` [Example 42, Ethyl 2-(5-{[(10R,14S)-14-[4-(3-chloro-2,6-difluorophenyl)-6-oxo-1,2,3,6-tetrahydropyridin-1-yl]-10-methyl-9-oxo-8,16-diazatricyclo[13.3.1.0^2,7]nonadeca-1(19),2,4,6,15,17-hexaen-5-yl]amino}-1,3,4-oxadiazol-2-yl)acetate, TFA salt], the Ki in test [1] was 0.45 nM.
